Key:
Experiment in all cases: Kinase selectivity, scanMAX Kinase assay panel (DiscoverX), % control at 1 uM
Format in all cases: binding
[1] = molecular target: T1, scanMAX Kinase assay panel (Homo sapiens, UniProt Q9NRM7); conditions: LATS2; 1 uM; read-out: Percent Control (%)
T1 construct: purchased DiscoverX
T1 sequence (Q9NRM7 1-1088): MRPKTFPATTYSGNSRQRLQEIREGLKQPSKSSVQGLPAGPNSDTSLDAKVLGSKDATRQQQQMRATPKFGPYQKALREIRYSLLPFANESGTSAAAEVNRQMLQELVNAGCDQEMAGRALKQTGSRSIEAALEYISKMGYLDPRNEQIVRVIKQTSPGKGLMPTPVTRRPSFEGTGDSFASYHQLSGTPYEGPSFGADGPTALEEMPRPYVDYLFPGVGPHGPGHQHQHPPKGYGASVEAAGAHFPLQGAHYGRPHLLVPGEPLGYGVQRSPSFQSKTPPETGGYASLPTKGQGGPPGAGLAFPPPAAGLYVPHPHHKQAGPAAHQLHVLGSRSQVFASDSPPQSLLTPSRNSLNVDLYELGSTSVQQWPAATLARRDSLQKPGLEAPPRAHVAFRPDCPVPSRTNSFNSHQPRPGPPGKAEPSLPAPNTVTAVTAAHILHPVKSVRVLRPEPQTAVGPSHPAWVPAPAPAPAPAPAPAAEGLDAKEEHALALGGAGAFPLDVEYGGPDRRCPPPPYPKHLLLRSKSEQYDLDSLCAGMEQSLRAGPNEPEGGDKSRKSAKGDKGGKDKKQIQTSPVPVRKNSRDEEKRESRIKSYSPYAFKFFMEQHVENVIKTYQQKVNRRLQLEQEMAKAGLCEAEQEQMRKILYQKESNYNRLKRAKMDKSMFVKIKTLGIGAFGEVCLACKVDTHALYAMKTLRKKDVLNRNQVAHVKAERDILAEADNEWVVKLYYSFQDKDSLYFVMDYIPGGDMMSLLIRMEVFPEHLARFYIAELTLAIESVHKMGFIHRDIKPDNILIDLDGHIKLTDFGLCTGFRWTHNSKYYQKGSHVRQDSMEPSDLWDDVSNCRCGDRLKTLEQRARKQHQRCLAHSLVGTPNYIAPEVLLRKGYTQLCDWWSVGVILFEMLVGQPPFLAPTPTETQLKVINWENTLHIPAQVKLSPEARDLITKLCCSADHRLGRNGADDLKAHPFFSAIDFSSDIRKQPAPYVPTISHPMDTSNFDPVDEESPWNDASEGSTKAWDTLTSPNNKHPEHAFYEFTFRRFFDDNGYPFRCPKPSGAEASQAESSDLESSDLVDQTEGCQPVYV
In short: (§1)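 1 uM cpd (DMSO) per kinase; % ctrl = [cpd − pos ctrl]/[neg ctrl − pos ctrl] × 100; hit if <35.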

[2] = molecular target: T2, scanMAX Kinase assay panel (Homo sapiens, UniProt O15264); conditions: p38-delta; 1 uM; read-out: Percent Control (%)
T2 construct: purchased DiscoverX
T2 sequence (O15264 1-365): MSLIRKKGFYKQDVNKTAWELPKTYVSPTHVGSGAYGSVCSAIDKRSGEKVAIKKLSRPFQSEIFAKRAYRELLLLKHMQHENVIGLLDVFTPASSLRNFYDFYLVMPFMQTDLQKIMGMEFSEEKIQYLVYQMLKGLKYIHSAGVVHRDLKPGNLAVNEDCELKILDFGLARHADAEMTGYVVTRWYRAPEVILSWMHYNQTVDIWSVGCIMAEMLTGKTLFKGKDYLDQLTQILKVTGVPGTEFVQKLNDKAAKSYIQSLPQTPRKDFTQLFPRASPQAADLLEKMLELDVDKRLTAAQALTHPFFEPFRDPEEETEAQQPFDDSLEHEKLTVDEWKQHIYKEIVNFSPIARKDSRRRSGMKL
In short: as §1

[3] = molecular target: T3, scanMAX Kinase assay panel (Homo sapiens, UniProt Q13164); conditions: ERK5; 1 uM; read-out: Percent Control (%)
T3 construct: purchased DiscoverX
T3 sequence (Q13164 whole entry): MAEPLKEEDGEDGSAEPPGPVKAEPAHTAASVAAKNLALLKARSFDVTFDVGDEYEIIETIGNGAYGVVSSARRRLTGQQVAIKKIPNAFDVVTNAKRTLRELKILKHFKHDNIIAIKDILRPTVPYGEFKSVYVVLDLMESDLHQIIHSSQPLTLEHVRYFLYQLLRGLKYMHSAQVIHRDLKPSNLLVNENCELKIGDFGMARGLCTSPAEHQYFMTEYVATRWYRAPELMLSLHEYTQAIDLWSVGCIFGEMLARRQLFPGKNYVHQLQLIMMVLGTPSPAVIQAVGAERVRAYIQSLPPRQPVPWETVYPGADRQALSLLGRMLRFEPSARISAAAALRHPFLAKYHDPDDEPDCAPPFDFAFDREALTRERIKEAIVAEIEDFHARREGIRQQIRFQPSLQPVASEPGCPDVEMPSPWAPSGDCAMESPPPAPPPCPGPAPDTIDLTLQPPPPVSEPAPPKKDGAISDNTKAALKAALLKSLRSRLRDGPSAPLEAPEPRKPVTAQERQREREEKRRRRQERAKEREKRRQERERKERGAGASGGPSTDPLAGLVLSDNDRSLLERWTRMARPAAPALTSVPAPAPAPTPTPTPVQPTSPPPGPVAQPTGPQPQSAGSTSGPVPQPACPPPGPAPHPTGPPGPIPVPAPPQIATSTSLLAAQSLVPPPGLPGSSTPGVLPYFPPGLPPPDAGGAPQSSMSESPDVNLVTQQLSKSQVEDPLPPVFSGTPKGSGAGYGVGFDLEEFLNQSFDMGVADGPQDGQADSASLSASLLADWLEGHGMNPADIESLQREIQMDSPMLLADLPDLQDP
In short: as §1

[4] = molecular target: T4, scanMAX Kinase assay panel (Homo sapiens, UniProt P00533, DEL752-759); conditions: EGFR (S752-I759del); 1 uM; read-out: Percent Control (%)
T4 construct: purchased DiscoverX
T4 sequence (P00533 with tags, fused parts or gaps DEL752-759): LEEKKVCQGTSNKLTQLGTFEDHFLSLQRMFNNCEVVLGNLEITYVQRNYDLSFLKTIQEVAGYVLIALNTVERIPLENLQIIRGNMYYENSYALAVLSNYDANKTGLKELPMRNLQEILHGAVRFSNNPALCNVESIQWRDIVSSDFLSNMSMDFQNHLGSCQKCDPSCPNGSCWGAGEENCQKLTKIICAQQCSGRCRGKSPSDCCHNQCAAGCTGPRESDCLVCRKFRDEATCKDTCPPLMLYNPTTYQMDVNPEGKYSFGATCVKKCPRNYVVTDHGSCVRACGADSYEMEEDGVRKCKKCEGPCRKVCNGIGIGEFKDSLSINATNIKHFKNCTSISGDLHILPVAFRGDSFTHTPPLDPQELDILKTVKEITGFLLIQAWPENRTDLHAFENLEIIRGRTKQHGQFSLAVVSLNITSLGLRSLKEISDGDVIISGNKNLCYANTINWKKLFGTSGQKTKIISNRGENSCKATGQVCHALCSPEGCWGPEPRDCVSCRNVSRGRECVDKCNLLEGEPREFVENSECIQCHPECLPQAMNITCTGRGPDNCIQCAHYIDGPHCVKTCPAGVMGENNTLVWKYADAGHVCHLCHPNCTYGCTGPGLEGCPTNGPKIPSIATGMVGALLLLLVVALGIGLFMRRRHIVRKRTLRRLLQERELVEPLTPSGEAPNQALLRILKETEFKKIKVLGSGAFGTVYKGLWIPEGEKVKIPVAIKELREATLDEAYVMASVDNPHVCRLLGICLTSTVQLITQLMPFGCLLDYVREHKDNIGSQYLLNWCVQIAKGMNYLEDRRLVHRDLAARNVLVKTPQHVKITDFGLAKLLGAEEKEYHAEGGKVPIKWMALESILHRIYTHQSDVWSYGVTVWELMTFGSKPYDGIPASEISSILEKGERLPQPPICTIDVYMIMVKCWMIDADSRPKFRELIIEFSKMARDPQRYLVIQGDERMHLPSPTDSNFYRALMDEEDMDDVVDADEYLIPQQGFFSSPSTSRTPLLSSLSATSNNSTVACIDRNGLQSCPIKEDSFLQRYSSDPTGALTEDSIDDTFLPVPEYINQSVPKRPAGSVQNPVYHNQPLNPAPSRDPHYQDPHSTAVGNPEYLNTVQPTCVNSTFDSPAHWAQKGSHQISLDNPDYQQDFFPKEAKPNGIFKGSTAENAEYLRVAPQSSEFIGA
In short: as §1

[5] = molecular target: T5, scanMAX Kinase assay panel (Homo sapiens, UniProt Q6P3R8); conditions: NEK5; 1 uM; read-out: Percent Control (%)
T5 construct: purchased DiscoverX
T5 sequence (Q6P3R8 1-708): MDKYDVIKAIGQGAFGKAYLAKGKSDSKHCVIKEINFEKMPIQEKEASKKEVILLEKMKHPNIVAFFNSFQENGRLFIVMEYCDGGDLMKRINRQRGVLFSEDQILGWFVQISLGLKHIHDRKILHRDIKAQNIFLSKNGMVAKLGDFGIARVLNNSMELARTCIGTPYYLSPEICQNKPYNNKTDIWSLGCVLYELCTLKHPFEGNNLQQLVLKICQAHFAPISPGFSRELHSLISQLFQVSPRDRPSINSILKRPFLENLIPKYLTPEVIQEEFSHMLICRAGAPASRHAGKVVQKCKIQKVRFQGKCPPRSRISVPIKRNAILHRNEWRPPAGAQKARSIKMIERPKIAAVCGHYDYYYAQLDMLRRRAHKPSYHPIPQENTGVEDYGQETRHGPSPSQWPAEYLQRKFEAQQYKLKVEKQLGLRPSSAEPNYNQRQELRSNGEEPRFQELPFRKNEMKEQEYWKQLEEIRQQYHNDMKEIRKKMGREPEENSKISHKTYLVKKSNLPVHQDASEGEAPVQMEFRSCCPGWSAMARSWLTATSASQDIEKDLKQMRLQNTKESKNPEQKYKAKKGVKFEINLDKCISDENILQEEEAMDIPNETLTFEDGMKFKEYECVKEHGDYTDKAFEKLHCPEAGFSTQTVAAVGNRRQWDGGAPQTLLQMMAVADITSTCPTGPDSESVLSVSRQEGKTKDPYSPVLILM
In short: as §1

[6] = molecular target: T6, scanMAX Kinase assay panel (Homo sapiens, UniProt Q9Y4K4); conditions: MAP4K5; 1 uM; read-out: Percent Control (%)
T6 construct: purchased DiscoverX
T6 sequence (Q9Y4K4 whole entry): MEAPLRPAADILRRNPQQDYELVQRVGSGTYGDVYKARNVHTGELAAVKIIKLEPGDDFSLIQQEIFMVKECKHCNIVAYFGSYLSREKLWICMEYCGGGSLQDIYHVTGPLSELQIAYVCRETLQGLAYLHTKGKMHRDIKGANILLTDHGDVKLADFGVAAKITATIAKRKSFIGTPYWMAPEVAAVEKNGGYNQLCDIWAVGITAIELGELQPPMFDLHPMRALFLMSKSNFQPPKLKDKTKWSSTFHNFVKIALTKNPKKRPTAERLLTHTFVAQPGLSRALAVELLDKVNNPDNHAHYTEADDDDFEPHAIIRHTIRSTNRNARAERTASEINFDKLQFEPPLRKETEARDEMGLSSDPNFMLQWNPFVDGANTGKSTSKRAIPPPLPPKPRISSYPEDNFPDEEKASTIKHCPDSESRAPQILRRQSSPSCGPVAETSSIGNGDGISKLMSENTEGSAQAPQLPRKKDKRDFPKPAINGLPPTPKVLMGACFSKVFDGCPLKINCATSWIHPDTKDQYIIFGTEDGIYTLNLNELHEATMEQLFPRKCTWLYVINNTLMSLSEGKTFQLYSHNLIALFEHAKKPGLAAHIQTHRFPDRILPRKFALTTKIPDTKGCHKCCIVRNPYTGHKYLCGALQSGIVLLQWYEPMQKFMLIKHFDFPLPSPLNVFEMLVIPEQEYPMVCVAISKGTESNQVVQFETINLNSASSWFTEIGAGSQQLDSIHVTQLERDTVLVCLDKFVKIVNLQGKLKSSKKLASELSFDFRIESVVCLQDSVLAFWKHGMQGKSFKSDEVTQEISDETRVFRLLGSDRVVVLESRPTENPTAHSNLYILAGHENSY
In short: as §1

Compound | remaining binding at 1 µM [1] [%] | remaining binding at 1 µM [2] [%] | remaining binding at 1 µM [3] [%] | remaining binding at 1 µM [4] [%] | remaining binding at 1 µM [5] [%] | remaining binding at 1 µM [6] [%]
Cc1ccc(C(=O)Nc2ccc(CN3CCN(C)CC3)c(C(F)(F)F)c2)cc1C#Cc1cnc2c(Nc3cnn(C)c3)cccn12 [Example 1, 4-methyl-3-((8-((1-methyl-1H-pyrazol-4-yl)amino)imidazo[1,2-a]pyridin-3-yl)ethynyl)-N-(4-((4-methylpiperazin-1-yl)methyl)-3-(trifluoromethyl)phenyl)benzamide] | 67 | 16 | 78 | 7 | 2 | 1
Cc1cn(-c2cc(NC(=O)c3ccc(C)c(C#Cc4cnc5c(Nc6cnn(C)c6)cccn45)c3)cc(C(F)(F)F)c2)cn1 [Example 12, 4-methyl-N-(3-(4-methyl-1H-imidazol-1-yl)-5-(trifluoromethyl)phenyl)-3-((8-((1-methyl-1H-pyrazol-4-yl)amino)imidazo[1,2-a]pyridin-3-yl)ethynyl)benzamide] | 98 | 78 | 90 | 8 | 86 | 12
Cc1ccc(NC(=O)C2(C(=O)Nc3ccc(F)cc3)CC2)cc1C#Cc1cnc2c(Nc3cnn(C(C)C)c3)cccn12 [Example 78] | 100 | 100 | 100 | 100 | 100 | 82
